From US3998790A, “Phenoxy-hydroxypropylamines, their preparation, and method and pharmaceutical preparations for treating cardiovascular diseases” (priority 1974, dated 1976)
Where two headings read alike, the source gives them in different places.

Experiments:
[1] = biological target: T1, peripheral vascular β-receptors (Felis catus, UniProt Q9TST5); assay: β-blocking activity on peripheral vascular resistance (vasodilator response to isoprenaline) in reserpinized cats; format: in vivo, cat; conditions: read-out: β-blockade peripheral vascular resistance ED50
T1 construct: from tissue; host or cells: vascular bed of the perfused leg of the anaesthetized, reserpinized cat, paw excluded (in vivo)
Experimental: (§1) The acute LD50 in mice was evaluated. Alprenolol was used as a reference substance.
(§2) Cats weighing between 1.8 and 2.8 kg were anaesthetized with 30 mg/kg pentobarbital sodium, intraperitoneally. The cats had been pretreated with reserpine, 5 mg/kg intramuscular, about 18 hours before the experiment. Bilateral vagotomy was performed before the start of the experiment.
(§3) The heart rate was recorded on an Offner cardiotachometer triggered by the EKG-complex. Mean arterial blood pressure was recorded from a carotid artery. The peripheral resistance was measured in one of the legs of the cat in the following way: The femoral artery was opened in the inguinal region and the leg was perfused by blood delivered through a sigma motor pump at constant rate. The flow resistance (the pressure) was recorded via a pressure transudcer connected to the catheter distally to the pump. The paw was excluded from the circulation by a tight ligature Intravenously injected isoprenaline increased the heart rate and reduced the perfusion pressure. An isoprenaline dose giving 70-80% of the maximal chronotropic response was determined. This dose (usually 0.1 μg/kg) was then repeated with 20 minute intervals. Ten minutes before each isoprenaline injection, the tested substances were administered intravenously for two minutes, starting with a dose of 0.01 mg/kg and increasing each subsequent dose fourfold. The intrinsic effects of the test substances were determined. The dose producing 50% blockade of the isoprenaline responses was evaluated from the plotted log dose-percent blockade diagrams.

β-receptors of the heart = biological target: T2, β-receptors of the heart (Felis catus, UniProt Q9TST6); assay: β-blocking activity on heart rate (isoprenaline response) in reserpinized cats; format: in vivo, cat; conditions: read-out: β-blockade Heart rate ED50
T2 construct: Intravenously injected isoprenaline increased the heart rate and reduced the perfusion pressure; from tissue; host or cells: heart of the intact anaesthetized, reserpinized, vagotomized cat (in vivo)
Experimental: as §1, §2, §3

heart rate = assay: intrinsic stimulating activity on heart rate in reserpinized cats; format: in vivo, cat; conditions: Felis catus, read-out: Intrinsic activity % of maximal isoprenaline heart rate
Experimental: (§4) Compounds prepared according to the examples were evaluated for intrinsic activity and blocking effect on heart rate and: peripheral vasodilator response to isoprenaline in the cat. The acute LD50 in mice was evaluated.
as §2
as §3, with “The paw was excluded from the circulation by a tight ligature Intravenously injected isoprenaline increased the heart rate and reduced the perfusion pressure.” left out, “This dose (usually 0.1 μg/kg) was then repeated with 20 minute intervals.” left out

in vivo = conditions: mouse, ip
Experimental: as §4

[2] = reserpinized cat, pentobarbital anaesthesia, intravenous
[3] = reserpinized cat, intravenous, dose producing 50% blockade of isoprenaline response

T1 sequence (Q9TST5 whole entry, the tested form may be a part): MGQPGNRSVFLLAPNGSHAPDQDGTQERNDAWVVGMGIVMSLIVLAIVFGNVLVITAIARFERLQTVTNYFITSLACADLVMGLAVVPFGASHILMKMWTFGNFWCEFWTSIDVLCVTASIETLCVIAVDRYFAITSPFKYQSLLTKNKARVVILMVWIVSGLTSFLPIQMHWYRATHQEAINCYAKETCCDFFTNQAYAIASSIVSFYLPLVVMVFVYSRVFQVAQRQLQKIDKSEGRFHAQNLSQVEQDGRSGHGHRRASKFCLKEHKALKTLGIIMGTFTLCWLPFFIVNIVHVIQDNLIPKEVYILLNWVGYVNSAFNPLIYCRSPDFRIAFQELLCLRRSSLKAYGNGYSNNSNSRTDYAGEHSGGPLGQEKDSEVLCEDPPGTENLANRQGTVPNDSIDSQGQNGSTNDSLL
T2 sequence (Q9TST6 whole entry, the tested form may be a part): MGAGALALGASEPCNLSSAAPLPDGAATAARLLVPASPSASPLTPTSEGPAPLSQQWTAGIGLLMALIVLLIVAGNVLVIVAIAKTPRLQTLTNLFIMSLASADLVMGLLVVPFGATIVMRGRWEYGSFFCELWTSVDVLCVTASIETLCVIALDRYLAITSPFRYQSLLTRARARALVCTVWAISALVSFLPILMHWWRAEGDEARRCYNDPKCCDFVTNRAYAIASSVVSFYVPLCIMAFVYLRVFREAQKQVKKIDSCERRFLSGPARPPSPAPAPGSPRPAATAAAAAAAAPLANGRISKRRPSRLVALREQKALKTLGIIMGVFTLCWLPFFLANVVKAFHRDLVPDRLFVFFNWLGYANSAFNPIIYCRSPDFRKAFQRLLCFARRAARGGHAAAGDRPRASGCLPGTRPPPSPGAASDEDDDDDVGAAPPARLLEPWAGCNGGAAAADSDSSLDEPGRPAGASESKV

SMILES	ED50 ([1]; cat, iv) [mg/kg]	ED50 (β-receptors of the heart; cat, iv) [mg/kg]	Emax (heart rate; [2]) [%]	LD50 (in vivo) [mg/kg]	ED50 [1, 3] [mg/kg]	ED50 (β-receptors of the heart; [3]) [mg/kg]	Emax (heart rate; iv) [%]
C=CCc1ccccc1OCC(O)CNC(C)C (centres unmarked) [alprenolol, reference compound]	0.05	0.1	20				
COCCc1ccc(OCC(O)CNC(C)C)cc1 (stereo not drawn) [Ex. I, 1-isopropylamino-3-[p-(β-methoxyethyl)-phenoxy]-propanol-2]	3	0.4	0	200			
CCOCCc1ccc(OCC(O)CNC(C)C)cc1 (stereo not drawn) [Ex. II, 1-isopropylamino-3-[p-(β-ethoxyethyl)-phenoxy]-propanol-2]			0	150	4	0.3	
CCOC(=O)NCCc1ccc(OCC(O)CNC(C)C)cc1 (centres unmarked)				200	25	0.3	0
COC(=O)NCCc1ccc(OCC(O)CNC(C)C)cc1 (centres unmarked) [(no label)]				125	19	0.4	0
CCOCc1ccc(OCC(O)CNC(C)C)cc1 (centres unmarked) [Ex. III, 1-isopropylamino-3-(p-ethoxymethyl-phenoxy)-propanol-2]			0	175	6	0.4	
